{"source": "ChEMBL document CHEMBL3232771", "about": "“Synthesis and positive inotropic evaluation of [1,2,4]triazolo[3,4-a]phthalazine and tetrazolo[5,1-a]phthalazine derivatives bearing substituted piperazine moieties” (2014)", "key": {"[1]": {"tested_on": "Heart", "assay": "Positive inotropic activity in rabbit heart assessed as increase in left atrium stroke volume at 3 X 10^-5 M", "assay_type": "functional, Oryctolagus cuniculus, Cardiac atrium"}, "[2]": {"organism": "Oryctolagus cuniculus", "assay": "Positive inotropic activity in perfused beating rabbit atrium assessed as increase in stroke volume at 30 umol/l relative to control", "assay_type": "functional, tissue-based", "conditions": "Cardiac atrium"}, "[3]": {"organism": "Oryctolagus cuniculus", "assay": "Positive inotropic activity in perfused rabbit atrium assessed as increase in stroke volume at 1 X 10^-5 to 10^-4 M relative to control", "conditions": "Cardiac atrium"}, "[4]": {"organism": "Oryctolagus cuniculus", "assay": "Positive inotropic activity in perfused rabbit atrium assessed as increase in stroke volume at 30 umol/l in presence of PKA inhibitor H-89 relative to control", "assay_type": "functional, tissue-based", "conditions": "Cardiac atrium"}, "[5]": {"organism": "Oryctolagus cuniculus", "assay": "Positive inotropic activity in perfused rabbit atrium assessed as increase in stroke volume at 30 umol/l in presence of L-type Ca2+ channel blocker nifedipine relative to control", "assay_type": "functional, tissue-based", "conditions": "Cardiac atrium"}, "[6]": {"organism": "Oryctolagus cuniculus", "assay": "Positive inotropic activity in perfused rabbit atrium assessed as increase in stroke volume at 30 umol/l in presence of adenylate cyclase activator forskolin relative to control", "assay_type": "functional, tissue-based", "conditions": "Cardiac atrium"}, "[7]": {"conditions": "Oryctolagus cuniculus, Cardiac atrium"}}, "note": "Activity calls are given as the source filed them. The calls are words filed in the database; no cut-off is given here.", "data": [{"smiles": "COc1cccc(/C=C/C(=O)N2CCN(c3nn4cnnc4c4ccccc34)CC2)c1", "values": [{"measurement": "Activity", "setting": "[1]", "value": 4.13, "unit": "%"}, {"measurement": "Activity", "setting": "[2]", "value": "Active"}]}, {"smiles": "Cc1ccc(/C=C/C(=O)N2CCN(c3nn4nnnc4c4ccccc34)CC2)cc1", "values": [{"measurement": "Activity", "setting": "[1]", "value": 2.74, "unit": "%"}, {"measurement": "Activity", "setting": "[2]", "value": "Active"}]}, {"smiles": "O=C(c1ccccc1)N1CCN(c2nn3cnnc3c3ccccc23)CC1", "values": [{"measurement": "Activity", "setting": "[1]; [7]", "value": "inactive"}]}, {"smiles": "O=C(c1cccc(Br)c1)N1CCN(c2nn3nnnc3c3ccccc23)CC1", "values": [{"measurement": "Activity", "setting": "[1]; [7]", "value": "inactive"}]}, {"smiles": "O=C(/C=C/c1cccc(Br)c1)N1CCN(c2nn3nnnc3c3ccccc23)CC1", "values": [{"measurement": "Activity", "setting": "[1]; [7]", "value": "inactive"}]}, {"smiles": "O=C(/C=C/c1ccc(Br)cc1)N1CCN(c2nn3cnnc3c3ccccc23)CC1", "values": [{"measurement": "Activity", "setting": "[1]; [7]", "value": "inactive"}]}, {"smiles": "COc1ccc(C(=O)N2CCN(c3nn4cnnc4c4ccccc34)CC2)cc1", "values": [{"measurement": "Activity", "setting": "[1]", "value": 3.68, "unit": "%"}, {"measurement": "Activity", "setting": "[2]", "value": "Active"}]}, {"smiles": "Cc1ccc(/C=C/C(=O)N2CCN(c3nn4cnnc4c4ccccc34)CC2)cc1", "values": [{"measurement": "Activity", "setting": "[1]", "value": 14.87, "unit": "%"}, {"measurement": "Activity", "setting": "[3]", "value": "Active"}, {"measurement": "Activity", "setting": "[2]", "value": "Active"}]}, {"smiles": "O=C(/C=C/c1ccc(Br)cc1)N1CCN(c2nn3nnnc3c3ccccc23)CC1", "values": [{"measurement": "Activity", "setting": "[1]; [7]", "value": "inactive"}]}, {"smiles": "O=C(c1ccc(F)cc1)N1CCN(c2nn3cnnc3c3ccccc23)CC1", "values": [{"measurement": "Activity", "setting": "[1]", "value": 2.91, "unit": "%"}, {"measurement": "Activity", "setting": "[2]", "value": "Active"}]}, {"smiles": "COc1ccc(C(=O)N2CCN(c3nn4nnnc4c4ccccc34)CC2)cc1", "values": [{"measurement": "Activity", "setting": "[1]", "value": 9.39, "unit": "%"}, {"measurement": "Activity", "setting": "[2]", "value": "Active"}]}, {"smiles": "Cc1ccc(C(=O)N2CCN(c3nn4cnnc4c4ccccc34)CC2)cc1", "values": [{"measurement": "Activity", "setting": "[4]", "value": "inactive"}, {"measurement": "Activity", "setting": "[5]", "value": "inactive"}, {"measurement": "Activity", "setting": "[1]", "value": 19.15, "unit": "%"}, {"measurement": "Activity", "setting": "[3]", "value": "Active"}, {"measurement": "Activity", "setting": "[2]", "value": "Active"}, {"measurement": "Activity", "setting": "[6]", "value": "Active"}]}, {"smiles": "COc1cccc(C(=O)N2CCN(c3nn4cnnc4c4ccccc34)CC2)c1", "values": [{"measurement": "Activity", "setting": "[1]", "value": 0.95, "unit": "%"}]}, {"smiles": "O=C(c1ccc(F)cc1)N1CCN(c2nn3nnnc3c3ccccc23)CC1", "values": [{"measurement": "Activity", "setting": "[1]", "value": 4.73, "unit": "%"}, {"measurement": "Activity", "setting": "[2]", "value": "Active"}]}, {"smiles": "Cc1[nH]c(=O)c(C#N)cc1-c1ccncc1", "note": "[MILRINONE]", "values": [{"measurement": "Activity", "setting": "[1]", "value": 2.46, "unit": "%"}]}, {"smiles": "O=C(/C=C/c1ccc(Cl)cc1)N1CCN(c2nn3nnnc3c3ccccc23)CC1", "values": [{"measurement": "Activity", "setting": "[1]; [7]", "value": "inactive"}]}, {"smiles": "O=C(c1ccc(Br)cc1)N1CCN(c2nn3nnnc3c3ccccc23)CC1", "values": [{"measurement": "Activity", "setting": "[1]", "value": 7.49, "unit": "%"}, {"measurement": "Activity", "setting": "[2]", "value": "Active"}]}, {"smiles": "O=C(c1ccc(Cl)cc1)N1CCN(c2nn3cnnc3c3ccccc23)CC1", "values": [{"measurement": "Activity", "setting": "[1]", "value": 13.33, "unit": "%"}, {"measurement": "Activity", "setting": "[2]", "value": "Active"}]}, {"smiles": "O=C(/C=C/c1cccc(Cl)c1)N1CCN(c2nn3cnnc3c3ccccc23)CC1", "values": [{"measurement": "Activity", "setting": "[1]; [7]", "value": "inactive"}]}, {"smiles": "O=C(/C=C/c1ccc(F)cc1)N1CCN(c2nn3cnnc3c3ccccc23)CC1", "values": [{"measurement": "Activity", "setting": "[1]; [7]", "value": "inactive"}]}, {"smiles": "O=C(c1cccc(Cl)c1)N1CCN(c2nn3cnnc3c3ccccc23)CC1", "values": [{"measurement": "Activity", "setting": "[1]", "value": 2.56, "unit": "%"}, {"measurement": "Activity", "setting": "[2]", "value": "Active"}]}, {"smiles": "Cc1ccc(C(=O)N2CCN(c3nn4nnnc4c4ccccc34)CC2)cc1", "values": [{"measurement": "Activity", "setting": "[1]", "value": 13.46, "unit": "%"}, {"measurement": "Activity", "setting": "[2]", "value": "Active"}]}, {"smiles": "O=C(c1ccccc1)N1CCN(c2nn3nnnc3c3ccccc23)CC1", "values": [{"measurement": "Activity", "setting": "[1]; [7]", "value": "inactive"}]}, {"smiles": "COc1cccc(C(=O)N2CCN(c3nn4nnnc4c4ccccc34)CC2)c1", "values": [{"measurement": "Activity", "setting": "[1]", "value": 1.94, "unit": "%"}]}, {"smiles": "O=C(c1cccc(Br)c1)N1CCN(c2nn3cnnc3c3ccccc23)CC1", "values": [{"measurement": "Activity", "setting": "[1]", "value": 8.49, "unit": "%"}, {"measurement": "Activity", "setting": "[2]", "value": "Active"}]}, {"smiles": "O=C(/C=C/c1ccc(F)cc1)N1CCN(c2nn3nnnc3c3ccccc23)CC1", "values": [{"measurement": "Activity", "setting": "[1]; [7]", "value": "inactive"}]}, {"smiles": "O=C(/C=C/c1cccc(Br)c1)N1CCN(c2nn3cnnc3c3ccccc23)CC1", "values": [{"measurement": "Activity", "setting": "[1]; [7]", "value": "inactive"}]}, {"smiles": "O=C(/C=C/c1ccccc1)N1CCN(c2nn3nnnc3c3ccccc23)CC1", "values": [{"measurement": "Activity", "setting": "[1]", "value": 8.09, "unit": "%"}, {"measurement": "Activity", "setting": "[2]", "value": "Active"}]}, {"smiles": "O=C(/C=C/c1cccc(Cl)c1)N1CCN(c2nn3nnnc3c3ccccc23)CC1", "values": [{"measurement": "Activity", "setting": "[1]; [7]", "value": "inactive"}]}, {"smiles": "O=C(c1ccc(Cl)cc1)N1CCN(c2nn3nnnc3c3ccccc23)CC1", "values": [{"measurement": "Activity", "setting": "[1]", "value": 2.05, "unit": "%"}]}, {"smiles": "O=C(/C=C/c1ccc(Cl)cc1)N1CCN(c2nn3cnnc3c3ccccc23)CC1", "values": [{"measurement": "Activity", "setting": "[1]; [7]", "value": "inactive"}]}, {"smiles": "O=C(/C=C/c1ccccc1)N1CCN(c2nn3cnnc3c3ccccc23)CC1", "values": [{"measurement": "Activity", "setting": "[1]; [7]", "value": "inactive"}]}, {"smiles": "COc1ccc(CN2CCN(c3nn4nnnc4c4ccccc34)CC2)cc1", "values": [{"measurement": "Activity", "setting": "[1]", "value": 12.02, "unit": "%"}]}, {"smiles": "O=C(c1cccc(Cl)c1)N1CCN(c2nn3nnnc3c3ccccc23)CC1", "values": [{"measurement": "Activity", "setting": "[1]", "value": 0.23, "unit": "%"}]}, {"smiles": "O=C(c1ccc(Br)cc1)N1CCN(c2nn3cnnc3c3ccccc23)CC1", "values": [{"measurement": "Activity", "setting": "[1]", "value": 3.65, "unit": "%"}, {"measurement": "Activity", "setting": "[2]", "value": "Active"}]}, {"smiles": "COc1cccc(/C=C/C(=O)N2CCN(c3nn4nnnc4c4ccccc34)CC2)c1", "values": [{"measurement": "Activity", "setting": "[1]", "value": 5.35, "unit": "%"}, {"measurement": "Activity", "setting": "[2]", "value": "Active"}]}]}
